Where a name gives a salt, the structure may show the parent alone. Read-outs that look alike come from different tables or passages of the source.
Legend:
hERG [1] = molecular target: T1, hERG (Homo sapiens, UniProt Q12809); test: Tox21 qHTS FluxOR thallium flux assay in hERG-U2OS cells
Experimental: The hERG-U2OS cell line was purchased from Codex BioSolution, Inc. (Gaithersburg, MD, USA). All the cell culture reagents were obtained from Invitrogen (Life Technologies, Madison, WI, USA). The hERG-U2OS cells were cultured in DMEM with Glutamax containing 10% fetal bovine serum (FBS), 1% of Non-Essential AA (NEAA), 50 U/mL penicillin, 50 μg/mL streptomycin, and 1 µg/mL puromycin. The cells were maintained at 37 °C under a humidified atmosphere and 5% CO2.
A FluxORTM thallium flux assay was performed in hERG-U2OS cells with stable hERG expression, as previously described. In this assay, thallium ions are used as surrogates for K^+ ions to monitor the activity of the hERG K^+ channel. […] The hERG-U2OS cells suspended in culture medium were dispensed at 1000 cells/well/3μL into 1536-well, black wall/clear-bottom plates using a Multidrop Combi dispenser (Thermo Fisher, Waltham, MA, USA). After the assay plates were incubated at 37 °C overnight, 3 μL of Loading Buffer provided from FluxOR II Potassium Ion Channel Assay Kit (Life Technologies, Carlsbad, CA, USA) was added to each assay well. The assay plates were then incubated at room temperature in the dark for 1 h, followed by the addition of 23 nL of compound, dissolved in DMSO, DMSO only, or positive control, to the assay plate. Each compound was tested at 15 concentrations in three independent runs.
Multiple criteria were used to select each small molecule, including properties allowing for high-throughput screens (HTS) (molecular weight, volatility, solubility, logP), commercial availability, possible and definite environmental hazards, or exposure concerns, and cost. A diverse group of 88 compounds was selected to be used as an internal control and plated in duplicate on each library plate to perform reproducibility analysis as well as to determine positional plate effects. Each compound in the Tox21 10K compound library was subjected to analytical chemistry quality control (QC), which provides information on the purity and identity of each sample. […] The compounds were serially diluted in Dimethylsulfoxide (DMSO) to 15 concentrations in 1536-well plates, covering a concentration range of up to four orders of magnitude.
Many of these chemicals were sourced independently by NTP/EPA/NCATS from different vendors or the same vendor but different batches; these chemicals have been tested in replicates. Compound concentration-response data analysis was performed as previously described. […] The dataset was then corrected using the DMSO-only compound plates at the beginning and end of the compound plate stack by applying an in-house pattern correction algorithm. The half-maximum inhibition values (IC50) for each compound and maximum response (efficacy) values were obtained by fitting the concentration-response curves of each compound to a four-parameter Hill equation [24]. […] To identify chemicals with the potential to inhibit the hERG channel, we selected only antagonist chemicals with curve rank −5 to −9.

hERG [2] = molecular target: T1, hERG; test: cell-based; conditions: (-LOG10(IC50), µM)
hERG [3] = molecular target: T1, hERG; test: in vitro; conditions: (-LOG10(IC50), µM)
[4] = hERG-U2OS cells, thallium flux, qHTS, result in words
[5] = (-LOG10(IC50), µM), Supplementary File S2, Tox21 chemical library
[6] = IC50, hERG-U2OS cells, thallium flux, qHTS, 15 concentrations, three runs

T1 sequence (Q12809 whole entry): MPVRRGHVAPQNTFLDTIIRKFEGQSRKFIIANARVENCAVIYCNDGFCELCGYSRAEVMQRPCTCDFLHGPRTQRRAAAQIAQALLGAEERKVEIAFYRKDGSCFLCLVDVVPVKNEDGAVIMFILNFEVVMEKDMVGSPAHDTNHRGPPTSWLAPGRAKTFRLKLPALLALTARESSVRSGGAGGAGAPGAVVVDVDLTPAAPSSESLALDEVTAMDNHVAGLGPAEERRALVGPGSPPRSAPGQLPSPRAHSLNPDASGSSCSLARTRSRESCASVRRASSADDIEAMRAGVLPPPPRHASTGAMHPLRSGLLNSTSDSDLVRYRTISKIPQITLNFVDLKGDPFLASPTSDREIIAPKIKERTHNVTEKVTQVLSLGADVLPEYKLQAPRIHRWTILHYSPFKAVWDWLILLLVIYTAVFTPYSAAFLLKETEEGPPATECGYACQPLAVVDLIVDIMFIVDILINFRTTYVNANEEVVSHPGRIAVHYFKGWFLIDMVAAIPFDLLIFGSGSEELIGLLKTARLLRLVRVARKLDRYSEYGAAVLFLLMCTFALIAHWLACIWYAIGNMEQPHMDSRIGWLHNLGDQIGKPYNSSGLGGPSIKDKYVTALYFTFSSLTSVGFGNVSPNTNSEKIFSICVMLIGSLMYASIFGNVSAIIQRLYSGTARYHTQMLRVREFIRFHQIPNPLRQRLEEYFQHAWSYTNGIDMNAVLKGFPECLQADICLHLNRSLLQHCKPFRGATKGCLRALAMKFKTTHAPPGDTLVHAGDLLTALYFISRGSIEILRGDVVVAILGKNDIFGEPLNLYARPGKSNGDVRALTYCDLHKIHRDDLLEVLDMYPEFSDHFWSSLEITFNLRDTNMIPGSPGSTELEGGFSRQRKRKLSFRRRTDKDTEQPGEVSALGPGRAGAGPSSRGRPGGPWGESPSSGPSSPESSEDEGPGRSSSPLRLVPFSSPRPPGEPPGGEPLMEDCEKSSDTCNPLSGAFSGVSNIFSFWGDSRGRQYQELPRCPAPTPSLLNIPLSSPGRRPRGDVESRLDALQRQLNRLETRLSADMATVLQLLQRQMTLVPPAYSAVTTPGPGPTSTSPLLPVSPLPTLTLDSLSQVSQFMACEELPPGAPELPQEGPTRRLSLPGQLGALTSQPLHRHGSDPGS

Compound | IC50 (hERG [2]) [µM] | activity outcome for hERG inhibition in the assay (hERG [1]; [4]) | other results
CC(CCc1ccccc1)NCC(O)c1ccc(O)c(C(N)=O)c1 (stereo not drawn) [Labetalol] | 13.3 | – | activity outcome for hERG inhibition in the assay (hERG [1]): active
CC(C)NCC(O)c1ccc(NS(C)(=O)=O)cc1 (stereo not drawn) [Sotalol] | – | active | –
CCCCCCCCCCCC[N+](C)(C)Cc1ccccc1 [Benzyldimethyldodecylammonium chloride] | – | – | IC50 (hERG [3]; herg fluxor ii thallium influx): 1.21 µM
O=c1[nH]cc(F)c(=O)[nH]1 [5-fluorouracil] | – | inactive | –
O=C(CCCN1CCC(O)(c2cccc(C(F)(F)F)c2)CC1)c1ccc(F)cc1 [Trifluperidol] | – | most active | –
CCCCCCCCCCn1cc[n+](CCCCCCCCCC)c1C.[Cl-] [3-Didecyl-2-methylimidazolium chloride] | – | most active | –
C=C1C(CCl)(CCl)C2(Cl)C(Cl)C(Cl)C1(Cl)C2(Cl)Cl (stereo not drawn) [Toxaphene] | – | – | IC50 (hERG [3]; fluxor ii thallium influx herg): 35.6 µM
CCCCCCCC[N+](CCCCCCCC)(CCCCCCCC)CCCCCCCC.[Br-] [tetra-N-octylammonium bromide] | 0.745 | – | activity outcome for hERG inhibition in the assay (hERG [1]): most active
CCNc1ccc(C(=C2C=CC(=[N+](CC)CC)C=C2)c2ccc(N(CC)CC)cc2)c2ccccc12.[Cl-] [basic blue 7] | 0.526 | most active | –
Cl[C@H]1[C@H](Cl)[C@@H](Cl)[C@@H](Cl)[C@H](Cl)[C@H]1Cl [lindane] | 45 | – | activity outcome for hERG inhibition in the assay (hERG [1]): inhibitory activity
CCCCCCCCCCCCCC[P+](CCCC)(CCCC)CCCC.[Cl-] [tributyltetradecylphosphonium chloride] | 0.334 | most active | –
CC(C)(C)c1ccc(CSc2cnn(C(C)(C)C)c(=O)c2Cl)cc1 [Pyridaben] | 18.8 | inhibitory activity | –
CC(=O)[O-].CC(=O)[O-].[Hg+2] [Mercury(II) acetate] | – | – | IC50 (hERG [3]; herg fluxor ii thallium influx): 6.16 µM
c1cc[c]([Sb]([c]2ccccc2)[c]2ccccc2)cc1 [Triphenylstibine] | – | – | IC50 (hERG [3]; herg fluxor ii thallium influx): 17.4 µM
ClC1=C(Cl)C2(Cl)C3C(Cl)C(Cl)CC3C1(Cl)C2(Cl)Cl (stereo not drawn) [Technical chlordane] | – | – | IC50 (hERG [3]; herg fluxor ii thallium influx): 28.5 µM
CCCCCCCC[N+](C)(CCCCCCCC)CCCCCCCC.O=S(=O)([O-])C(F)(F)F [Methyltrioctylammonium trifluoromethanesulfonate] | 0.109 | – | Aff (affinity classification) (hERG [1]): 1; activity outcome for hERG inhibition in the assay (hERG [1]): most active
OC(CN1CCC(Cc2ccc(F)cc2)CC1)c1ccc(Cl)cc1 (stereo not drawn) [Eliprodil] | – | most active | IC50 (hERG [1]; [5]): 0.0916 µM; IC50 (hERG [1]; [6]): 0.09 µM
CO.COc1cc(Nc2c(C#N)cnc3cc(OCCCN4CCN(C)CC4)c(OC)cc23)c(Cl)cc1Cl [Bosutinib methanoate] | – | showing activity against hERG | –

Compound | IC50 (hERG [2]) [µM] | activity outcome for hERG inhibition in the assay (hERG [1]; [4]) | other results
CC1(C)CNC(=NN=C(/C=C/c2ccc(C(F)(F)F)cc2)/C=C/c2ccc(C(F)(F)F)cc2)NC1 [hydramethylnon] | 0.436 | most active | –
Cc1nc2sccn2c(=O)c1CCN1CCC(=C(c2ccc(F)cc2)c2ccc(F)cc2)CC1 [Ritanserin] | – | most active | IC50 (hERG [1]; [6]): 0.18 µM
CCCCCCCC[P+](CCCCCCCC)(CCCCCCCC)CCCCCCCC.[Br-] [tetraoctylphosphonium bromide] | 0.402 | most active | –
C/C=C/C(=O)Oc1ccccc1[N+](=O)[O-] [Dinocap] | 20.3 | inhibitory activity | –
C#CCC1=C(C)C(OC(=O)C2C(C=C(C)C)C2(C)C)CC1=O (stereo not drawn) [prallethrin] | 46.8 | inhibitory activity | –
CS(=O)(=O)CCNCc1ccc(-c2ccc3ncnc(Nc4ccc(OCc5cccc(F)c5)c(Cl)c4)c3c2)o1 [Lapatinib] | – | showing activity against hERG | –
CCNc1cc2[o+]c3cc(NCC)c(C)cc3c(-c3ccccc3C(=O)OCC)c2cc1C [Rhodamine 6G] | – | – | IC50 (hERG [3]; herg fluxor ii thallium influx): 2.45 µM
O=c1[nH]c2ccccc2n1C1CCN(CCCC(c2ccc(F)cc2)c2ccc(F)cc2)CC1 [Pimozide] | – | – | activity outcome for hERG inhibition in the assay (hERG [1]): most active
O=c1[nH]c2ccccc2n1CCCN1CCC(n2c(=O)[nH]c3cc(Cl)ccc32)CC1 [Domperidone] | – | showing activity against hERG | –
Clc1ccc(C(c2ccccc2Cl)C(Cl)(Cl)Cl)cc1 (stereo not drawn) [o p’-DDT] | – | inhibitory activity | –
C=CCC1=C(C)C(OC(=O)C2C(C=C(C)C)C2(C)C)CC1=O (stereo not drawn) [allethrin] | 32.3 | – | activity outcome for hERG inhibition in the assay (hERG [1]): inhibitory activity
CCNC(=O)N1CCN(CCCC(c2ccc(F)cc2)c2ccc(F)cc2)CC1 [Amperozide hydrochloride] | – | – | IC50 (hERG [1]; [5]): 0.0916 µM
O=C(CCCN1CCC(O)(c2ccc(Br)cc2)CC1)c1ccc(F)cc1 [Bromperidol] | 0.249 | most active | –
O=S1OCC2C(CO1)C1(Cl)C(Cl)=C(Cl)C2(Cl)C1(Cl)Cl (stereo not drawn) [Endosulfan] | 32.1 | – | activity outcome for hERG inhibition in the assay (hERG [1]): inhibitory activity
CCCCCCCCCCCC[N+](C)(C)Cc1ccccc1 [Benzyldodecyldimethylammonium bromide] | – | – | IC50 (hERG [3]; fluxor ii thallium influx herg): 1.25 µM
CC1(C)C2(Cl)C(Cl)C(Cl)C(Cl)(C(Cl)Cl)C1(Cl)C2Cl (stereo not drawn) [Strobane] | – | – | IC50 (hERG [3]; herg fluxor ii thallium influx): 41.2 µM
O=C1NCN(c2ccccc2)C12CCN(CCCC(c1ccc(F)cc1)c1ccc(F)cc1)CC2 [Fluspirilene] | – | most active | –
O=C(CCCN1CCC(O)(c2ccc(Cl)cc2)CC1)c1ccc(F)cc1 [Haloperidol] | – | – | activity outcome for hERG inhibition in the assay (hERG [1]): most active
